In one data set the target is T1, human ACC2 (Homo sapiens, UniProt O00763).
T1 construct: made in house; host or cells: SF-9 insect cells, recombinant baculovirus BAC-ACC2 (Nd)
Kind of data set: ACC2 inhibitory activity, malachite green assay with recombinant ACC2 (Nd). The data set is classed as biochemical. To be noted: for inhibition at 1 µM: 1 μM of the test compound, read-out: ACC2 inhibitory rates (%) at 1 μM. The method, then:
The ACC2 inhibitory action of the compound of the present invention was evaluated by the following method.
(1) Cloning of Human ACC2 Gene and Preparation of Recombinant Baculovirus
Human ACC2 gene was cloned by PCR using a human skeletal muscle cDNA library (Clontech) as a template and Primer 1 and Primer 2 shown below. Primer 1 and Primer 2 were prepared by adding SalI, XbaI restriction enzyme recognition sequences based on the information of the base sequence of human ACC2 gene (Genbank Accession U89344).
PCR was performed using Pyrobest DNA polymerase (TAKARA BIO INC.). The obtained PCR product was cloned to pT7 Blue vector (Novagen) and after confirmation of the base sequence, digested with restriction enzymes SalI and XbaI. The obtained DNA fragment was inserted into pFAST-BacHTa (Invitrogen) digested with restriction enzymes SalI and XbaI to give expression plasmid ACC2/pFAST-BacHTa.
A plasmid for expression of ACC2 without a mitochondrial targeting sequence was prepared by PCR using the expression plasmid as a template, and Primer 3 (SalI restriction enzyme recognition sequence was added) and Primer 4, which are prepared by reference to the information of human ACC2 gene base sequence (Genbank Accession U89344).
PCR was performed using Pyrobest-DNA polymerase (TAKARA BIO INC.). The obtained PCR product was cloned to pT7 Blue vector (Novagen) and after confirmation of the base sequence, digested with restriction enzymes SalI and AflII. The obtained DNA fragment was inserted into ACC2/pFAST-BacHTa digested with restriction enzymes SalI and AflII to give expression plasmid ACC2mito7/pFAST-BacHTa.
Using the expression plasmid ACC2mito7/pFAST-BacHTa and BAC-TO-BAC Baculovirus Expression System (Invitrogen), virus stock BAC-ACC2 of recombinant Baculovirus (N terminal deleted (hereinafter Nd)) was prepared.
(2) Preparation of ACC2 (Nd) Protein
SF-9 cells (Invitrogen) were inoculated to a medium (10 L) for insect cells (Sf-900IISFM medium (Invitrogen) containing 5% fetal bovine serum (Trace), 50 mg/L Gentamicin (Wako), 0.1% Pluronic F-68 (Invitrogen)) at 1.0×10^6 cells/mL, and cultured with shaking in Wave Bioreactor (GE Health Care) at 27° C., 20 rpm, rocking angle 10°, oxygen concentration 30%.
On day 2 of the culture, recombinant Baculovirus BAC-ACC2 (Nd) was added, and the cells were cultured for 3 days. The culture medium was centrifuged at 1000×g for 10 min to give virus-infected cells. The cells were washed with phosphate buffered saline (Invitrogen) and centrifuged under the same conditions. The obtained cells were cryopreserved at −80° C.
The cryopreserved cells were thawed in ice and suspended in 900 mL of 25 mM HEPES buffer (pH 7.5) containing 10% Glycerol, 0.3 M NaCl, 1 mM EDTA, 25 mM Sodium β-Glycerophosphate and 1 mM Sodium Orthovanadate, and supplemented with Complete Protease Inhibitor (Roche). The obtained suspension was homogenized three times in a polytron homogenizer (Kinematica) at 20,000 rpm for 30 sec. The obtained cell disruption solution was clarified by centrifugation at 186000×g for 60 min. To the supernatant was added 5 mL of AF-chelate 650M Ni chelated carrier (TOSOH), and the mixture was rotated at 4° C. for 1 hr, and centrifuged at 1000×g for 5 min, and the carrier was transferred to opened column. The column was washed with 50 mL of buffer A (50 mM HEPES (pH 7.5) containing 0.3 M NaCl), further washed with buffer A containing 20 mM Imidazole, and eluted with buffer A containing 250 mM Imidazole. The eluate was concentrated with Amicon Ultra 15 (Millipore) with a molecular weight cut off of 50K. The obtained concentrate was filtered using gelfiltration column (HiLoad 26/60 Superdex200 prep grade) (GE Health Care) with 50 mM HEPES buffer (pH 7.5) containing 10 mM MgCl2, 2 mM Dithiothreitol, 10 mM Tripotassium Citrate and 0.3 M NaCl to give ACC2 (Nd). The obtained ACC2 (Nd) was cryopreserved at −80° C.
(3) Measurement of ACC2 Inhibitory Activity […]

T1 sequence (O00763 117-2458 limits assumed): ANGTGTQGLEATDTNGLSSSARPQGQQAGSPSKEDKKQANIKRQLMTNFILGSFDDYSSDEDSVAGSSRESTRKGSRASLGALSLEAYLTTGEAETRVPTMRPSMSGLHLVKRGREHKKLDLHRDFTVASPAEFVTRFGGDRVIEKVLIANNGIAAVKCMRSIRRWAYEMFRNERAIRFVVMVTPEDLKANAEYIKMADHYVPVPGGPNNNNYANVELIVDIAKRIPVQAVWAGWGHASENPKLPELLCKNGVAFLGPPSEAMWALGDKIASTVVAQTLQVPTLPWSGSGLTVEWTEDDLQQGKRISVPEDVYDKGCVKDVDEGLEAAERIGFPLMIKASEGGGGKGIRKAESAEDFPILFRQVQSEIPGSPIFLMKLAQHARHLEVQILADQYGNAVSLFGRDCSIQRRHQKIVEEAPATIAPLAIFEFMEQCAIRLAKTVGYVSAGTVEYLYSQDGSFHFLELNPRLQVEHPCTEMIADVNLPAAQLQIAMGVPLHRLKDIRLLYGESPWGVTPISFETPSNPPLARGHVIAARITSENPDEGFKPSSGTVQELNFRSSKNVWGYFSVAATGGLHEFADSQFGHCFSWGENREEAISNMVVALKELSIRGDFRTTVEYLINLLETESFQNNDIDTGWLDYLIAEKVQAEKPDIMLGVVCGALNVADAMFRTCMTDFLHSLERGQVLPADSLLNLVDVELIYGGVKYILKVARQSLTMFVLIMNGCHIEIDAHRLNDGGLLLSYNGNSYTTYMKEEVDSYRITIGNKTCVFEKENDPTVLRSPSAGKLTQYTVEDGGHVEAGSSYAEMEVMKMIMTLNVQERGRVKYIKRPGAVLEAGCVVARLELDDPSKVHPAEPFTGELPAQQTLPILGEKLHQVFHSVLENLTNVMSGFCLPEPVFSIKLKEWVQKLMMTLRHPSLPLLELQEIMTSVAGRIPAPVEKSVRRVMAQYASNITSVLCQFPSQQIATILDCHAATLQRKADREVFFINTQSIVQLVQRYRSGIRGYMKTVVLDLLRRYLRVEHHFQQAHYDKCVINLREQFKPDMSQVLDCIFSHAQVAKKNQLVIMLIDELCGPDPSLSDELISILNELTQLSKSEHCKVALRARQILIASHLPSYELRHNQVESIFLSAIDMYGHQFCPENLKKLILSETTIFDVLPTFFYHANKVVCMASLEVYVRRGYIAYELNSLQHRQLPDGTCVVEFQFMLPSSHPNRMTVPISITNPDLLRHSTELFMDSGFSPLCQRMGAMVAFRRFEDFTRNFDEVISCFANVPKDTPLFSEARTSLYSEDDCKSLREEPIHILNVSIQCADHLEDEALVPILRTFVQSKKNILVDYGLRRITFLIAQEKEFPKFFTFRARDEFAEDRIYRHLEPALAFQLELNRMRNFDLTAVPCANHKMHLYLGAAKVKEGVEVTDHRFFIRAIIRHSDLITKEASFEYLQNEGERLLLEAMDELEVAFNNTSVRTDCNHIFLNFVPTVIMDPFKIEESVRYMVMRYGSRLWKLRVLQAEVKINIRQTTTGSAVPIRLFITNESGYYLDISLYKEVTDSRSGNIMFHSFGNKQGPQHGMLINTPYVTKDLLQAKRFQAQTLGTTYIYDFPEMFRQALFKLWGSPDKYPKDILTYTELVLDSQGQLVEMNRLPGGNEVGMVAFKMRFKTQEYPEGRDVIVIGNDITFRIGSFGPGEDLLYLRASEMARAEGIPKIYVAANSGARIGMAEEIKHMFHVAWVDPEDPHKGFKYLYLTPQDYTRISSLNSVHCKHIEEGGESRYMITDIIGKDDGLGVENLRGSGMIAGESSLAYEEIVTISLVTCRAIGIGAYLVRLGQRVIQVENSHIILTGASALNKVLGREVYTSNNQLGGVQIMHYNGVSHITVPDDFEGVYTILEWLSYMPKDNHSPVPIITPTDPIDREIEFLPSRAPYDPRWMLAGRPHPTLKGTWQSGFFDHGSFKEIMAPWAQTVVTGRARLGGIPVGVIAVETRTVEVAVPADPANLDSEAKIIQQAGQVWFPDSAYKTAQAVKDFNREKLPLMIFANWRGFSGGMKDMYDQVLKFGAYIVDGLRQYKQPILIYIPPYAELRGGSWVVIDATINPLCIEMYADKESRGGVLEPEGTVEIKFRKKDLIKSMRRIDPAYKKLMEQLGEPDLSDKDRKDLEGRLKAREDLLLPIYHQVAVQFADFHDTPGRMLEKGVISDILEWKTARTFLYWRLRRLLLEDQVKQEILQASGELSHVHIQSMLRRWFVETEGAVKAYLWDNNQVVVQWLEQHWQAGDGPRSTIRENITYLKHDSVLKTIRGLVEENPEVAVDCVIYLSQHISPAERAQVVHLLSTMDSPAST

`CC(=O)N[C@@H](C)COc1cc2oc(-c3cc(F)c(OCC4CC4)cc3F)nc2cn1` [Example 48, N-((2S)-1-((2-(4-(cyclopropylmethoxy)-2,5-difluorophenyl)[1,3]oxazolo[4,5-c]pyridin-6-yl)oxy)propan-2-yl)acetamide]: the melting point (in general, the temperature of the solid-liquid transition) fell in the range of 199.8 to 199.9 °C. The inhibition at 10 µM at human ACC2 (10 μM of the test compound, read-out: ACC2 inhibitory rates (%) at 10 μM) turned out to be 85%.
With `COc1cc(-c2nc3cnc(OC[C@H](C)NC(C)=O)cc3o2)cc(F)c1OCC1CC1` [Example 62, N-((2S)-1-((2-(4-(cyclopropylmethoxy)-3-fluoro-5-methoxyphenyl) [1,3]oxazolo[4,5-c]pyridin-6-yl)oxy)propan-2-yl)acetamide], the melting point was in the range of 162.9 to 163 °C. Further, the inhibition at 1 µM at human ACC2 was 90%.
In the same order, the values of `CC(=O)N[C@@H](C)COc1cc2oc(-c3cc(F)c(OCC4CC4)cn3)nc2cn1` [Example 65, N-((2S)-1-((2-(5-(cyclopropylmethoxy)-4-fluoropyridin-2-yl)[1,3]oxazolo[4,5-c]pyridin-6-yl)oxy)propan-2-yl)acetamide] are 183.3 to 183.4 °C and 95%.
The corresponding values for `CC(=O)N[C@@H](C)COc1cc2oc(-c3ccc(OC[C@H]4CC4(F)F)cc3)nc2cn1` [Example 68, N-((2S)-1-((2-(4-(((1R)-2,2-difluorocyclopropyl)methoxy)phenyl) [1,3]oxazolo[4,5-c]pyridin-6-yl)oxy)propan-2-yl)acetamide] are 204.6 to 204.7 °C and 98%.
